According to ChEMBL document CHEMBL2434921, “New synthetic aliphatic sulfonamido-quaternary ammonium salts as anticancer chemotherapeutic agents” (2013):
Each block holds one compound with its values, some of them ahead of it. The source made the active and inactive calls. The rule behind the calls is not given here.

Assays:
ACHN [1] = experiment: Growth inhibition of human ACHN cells after 48 hrs by SRB assay; assay type: functional
NCI-H23 [2] = experiment: Growth inhibition of human NCI-H23 cells after 48 hrs by SRB assay; assay type: functional; conditions: NCI-H23, 48 h
HCT-15 [3] = experiment: Growth inhibition of human HCT15 cells after 48 hrs by SRB assay; assay type: functional
MDA-MB-231 [4] = experiment: Growth inhibition of human MDA-MB-231 cells after 48 hrs by SRB assay; assay type: functional; conditions: MDA-MB-231, 48 h
PC-3 [5] = experiment: Growth inhibition of human PC3 cells after 48 hrs by SRB assay; assay type: functional; conditions: PC-3, 48 h
NUGC-3 [6] = experiment: Growth inhibition of human NUGC3 cells after 48 hrs by SRB assay; assay type: functional; conditions: NUGC-3, 48 h
[7] = target: Rho-related GTP-binding protein RhoB (Homo sapiens) (UniProt P62745); experiment: Transactivation of RhoB (unknown origin) transfected in human HeLa cells at 5 uM measured over 10 secs by dual luciferase reporter gene assay; assay type: cell-based
Chain of Rho-related GTP-binding protein RhoB (Homo sapiens) (P62745 whole entry): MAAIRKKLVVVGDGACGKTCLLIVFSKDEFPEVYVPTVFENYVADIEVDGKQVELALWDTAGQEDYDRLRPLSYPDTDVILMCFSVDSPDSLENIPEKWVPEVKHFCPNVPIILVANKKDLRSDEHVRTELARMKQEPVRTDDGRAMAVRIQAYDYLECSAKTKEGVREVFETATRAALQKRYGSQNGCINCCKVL

PC-3 [8] = experiment: Growth of human PC3 cells at 10 uM after 48 hrs by SRB assay; conditions: PC-3, 48 h
ACHN [9] = experiment: Growth inhibition of human ACHN cells at 3 uM after 48 hrs by SRB assay; values are per cent of control
HCT-15 [10] = experiment: Growth of human HCT15 cells at 0.3 uM after 48 hrs by SRB assay; conditions: HCT-15, 48 h
ACHN [11] = experiment: Growth of human ACHN cells at 0.3 uM after 48 hrs by SRB assay
NUGC-3 [12] = experiment: Growth of human NUGC3 cells at 0.1 uM after 48 hrs by SRB assay; conditions: NUGC-3, 48 h
PC-3 [13] = experiment: Growth inhibition of human PC3 cells at 0.1 uM after 48 hrs by SRB assay; values are per cent of control; conditions: PC-3, 48 h
MDA-MB-231 [14] = experiment: Growth of human MDA-MB-231 cells at 0.1 uM after 48 hrs by SRB assay; conditions: MDA-MB-231, 48 h
MDA-MB-231 [15] = experiment: Growth of human MDA-MB-231 cells at 1 uM after 48 hrs by SRB assay; conditions: MDA-MB-231, 48 h
MDA-MB-231 [16] = experiment: Growth of human MDA-MB-231 cells at 10 uM after 48 hrs by SRB assay; conditions: MDA-MB-231, 48 h
HCT-15 [17] = experiment: Growth inhibition of human HCT15 cells at 10 uM after 48 hrs by SRB assay; values are per cent of control; conditions: HCT-15, 48 h
HCT-15 [18] = experiment: Growth inhibition of human HCT15 cells at 1 uM after 48 hrs by SRB assay; values are per cent of control; conditions: HCT-15, 48 h
HCT-15 [19] = experiment: Growth inhibition of human HCT15 cells at 0.1 uM after 48 hrs by SRB assay; values are per cent of control; conditions: HCT-15, 48 h
NCI-H23 [20] = experiment: Growth of human NCI-H23 cells at 0.3 uM after 48 hrs by SRB assay; conditions: NCI-H23, 48 h
MDA-MB-231 [21] = experiment: Growth of human MDA-MB-231 cells at 3 uM after 48 hrs by SRB assay; values are per cent of control; conditions: MDA-MB-231, 48 h
NUGC-3 [22] = experiment: Growth of human NUGC3 cells at 1 uM after 48 hrs by SRB assay; conditions: NUGC-3, 48 h
NCI-H23 [23] = experiment: Growth inhibition of human NCI-H23 cells at 1 uM after 48 hrs by SRB assay; values are per cent of control; conditions: NCI-H23, 48 h
PC-3 [24] = experiment: Growth inhibition of human PC3 cells at 0.3 uM after 48 hrs by SRB assay; values are per cent of control; conditions: PC-3, 48 h
HCT-15 [25] = experiment: Growth of human HCT15 cells at 3 uM after 48 hrs by SRB assay; conditions: HCT-15, 48 h
PC-3 [26] = experiment: Growth inhibition of human PC3 cells at 1 uM after 48 hrs by SRB assay; values are per cent of control; conditions: PC-3, 48 h
NCI-H23 [27] = experiment: Growth of human NCI-H23 cells at 10 uM after 48 hrs by SRB assay; conditions: NCI-H23, 48 h
ACHN [28] = experiment: Growth inhibition of human ACHN cells at 1 uM after 48 hrs by SRB assay; values are per cent of control
NCI-H23 [29] = experiment: Growth inhibition of human NCI-H23 cells at 3 uM after 48 hrs by SRB assay; values are per cent of control; conditions: NCI-H23, 48 h
NUGC-3 [30] = experiment: Growth of human NUGC3 cells at 0.3 uM after 48 hrs by SRB assay; conditions: NUGC-3, 48 h
PC-3 [31] = experiment: Growth inhibition of human PC3 cells at 3 uM after 48 hrs by SRB assay; values are per cent of control; conditions: PC-3, 48 h
MDA-MB-231 [32] = experiment: Growth inhibition of human MDA-MB-231 cells at 0.3 uM after 48 hrs by SRB assay; values are per cent of control; conditions: MDA-MB-231, 48 h
NUGC-3 [33] = experiment: Growth inhibition of human NUGC3 cells at 10 uM after 48 hrs by SRB assay; values are per cent of control; conditions: NUGC-3, 48 h
ACHN [34] = experiment: Growth of human ACHN cells at 10 uM after 48 hrs by SRB assay
ACHN [35] = experiment: Growth of human ACHN cells at 0.1 uM after 48 hrs by SRB assay
NUGC-3 [36] = experiment: Growth inhibition of human NUGC3 cells at 3 uM after 48 hrs by SRB assay; values are per cent of control; conditions: NUGC-3, 48 h
NCI-H23 [37] = experiment: Growth inhibition of human NCI-H23 cells at 0.1 uM after 48 hrs by SRB assay; values are per cent of control; conditions: NCI-H23, 48 h

- GI50 (ACHN [1]): 100 nM
- GI50 (NCI-H23 [2]): 240 nM
- GI50 (HCT-15 [3]): inactive
- GI50 (MDA-MB-231 [4]): 300 nM
- GI50 (PC-3 [5]): 210 nM
SMILES: C=CC[N+](C)(C)CCN(C)C(=O)CCCCCCCCCCCCC
- GI50 (NUGC-3 [6]): 140 nM

- GI50 (HCT-15 [3]; HCT-15, 48 h): 580 nM
- GI50 (PC-3 [5]): 480 nM
- Activity [7]: Active
SMILES: CCCCCCCCCCCCCCCC(=O)N1CC[N+](C)(C)CC1
- GI50 (NUGC-3 [6]): 290 nM

- GI50 (ACHN [1]): 2210 nM
- GI50 (NCI-H23 [2]): 740 nM
- GI50 (HCT-15 [3]; HCT-15, 48 h): 560 nM
- GI50 (MDA-MB-231 [4]): 1520 nM
- GI50 (PC-3 [5]): 560 nM
SMILES: CCCCCCCCCCCCCCCCS(=O)(=O)NCC(C)(C)C[N+](C)(C)C
- growth, % of control at 10 µM (PC-3 [8]): -14.6%
- growth, % of control at 3 µM (ACHN [9]): 101%
- growth, % of control at 0.3 µM (HCT-15 [10]): 132%
- growth, % of control at 0.3 µM (ACHN [11]): 114%
- growth, % of control at 0.1 µM (NUGC-3 [12]): 106%
- growth, % of control at 0.1 µM (PC-3 [13]): 107%
- growth, % of control at 0.1 µM (MDA-MB-231 [14]): 95.6%
- growth, % of control at 1 µM (MDA-MB-231 [15]): 73.6%
- growth, % of control at 10 µM (MDA-MB-231 [16]): 16.5%
- growth, % of control at 10 µM (HCT-15 [17]): 11.7%
- growth, % of control at 1 µM (HCT-15 [18]): 46.1%
- growth, % of control at 0.1 µM (HCT-15 [19]): 136%
- growth, % of control at 0.3 µM (NCI-H23 [20]): 102%
- growth, % of control at 3 µM (MDA-MB-231 [21]): 49.5%
- growth, % of control at 1 µM (NUGC-3 [22]): 33.6%
- growth, % of control at 1 µM (NCI-H23 [23]): 54.1%
- growth, % of control at 0.3 µM (PC-3 [24]): 102%
- growth, % of control at 3 µM (HCT-15 [25]): 17.6%
- growth, % of control at 1 µM (PC-3 [26]): 51.8%
- growth, % of control at 10 µM (NCI-H23 [27]): 0.7%
- growth, % of control at 1 µM (ACHN [28]): 108%
- growth, % of control at 3 µM (NCI-H23 [29]): 26.3%
- growth, % of control at 0.3 µM (NUGC-3 [30]): 87.1%
- growth, % of control at 3 µM (PC-3 [31]): 0.2%
- growth, % of control at 0.3 µM (MDA-MB-231 [32]): 95%
- GI50 (NUGC-3 [6]): 430 nM
- growth, % of control at 10 µM (NUGC-3 [33]): 3%
- growth, % of control at 10 µM (ACHN [34]): 99.6%
- growth, % of control at 0.1 µM (ACHN [35]): 122%
- growth, % of control at 3 µM (NUGC-3 [36]): 14.7%
- growth, % of control at 0.1 µM (NCI-H23 [37]): 104%

- GI50 (PC-3 [5]): 440 nM
SMILES: CCCCCCCCCCCCCCCCCCOP(=O)([O-])OC1CC[N+](C)(C)CC1 [PERIFOSINE]
- GI50 (NUGC-3 [6]): 540 nM
